Counter-ions that a name gives are not always drawn.
Columns and labels:
[1] = Solubility screening by solvent addition technique (approximate solubility); format: physicochemical; details: thermodynamic from solid, stirred at 50° C.
Protocol: Approximate solubility values for amorphous Compound I dihydrochloride in 24 solvent systems was estimated by a solvent addition technique (Table 5).
The following procedure was used for the study: • Approximately 20 mg of material was weighed out into 24×2 mL push-cap vials. • Each solvent/solvent mixture was added to the appropriate vial in 5 volume aliquots (100 μL) until either no more solvent could be added or until the material dissolved. • In between additions, the experiments were stirred at 50° C. • If 2000 μL of solvent was added without dissolution of the material, solubility was calculated to be below this point. • Experiments were stirred at 50° C. for 1.5-5 h and then cooled at 0.1° C./min to 5° C. and stirred at 5° C. for about 10 h. • Solids (residual and recrystallized) were isolated by centrifugation (0.22 μm nylon filter) and analyzed by XRPD. • Anti-solvent addition (ASA) at 20° C. was carried out on solutions, followed by temperature cycling between 50° C.-5° C. (1 h hold, 0.1° C./min cool, 0.25° C./min ramp) for 20 h. • ASA at 5° C. was carried out on experiments which remained solutions, which were then stirred at 5° C. for 3 h. • Solids were isolated by centrifugation (0.22 μm nylon filter) and analyzed by XRPD; experiments which remained solutions were evaporated at ambient temperature (about 20° C.) under vacuum. • All isolated material was dried under vacuum at about 30° C. for about 19-23 h then re-analyzed by XRPD.
For comparison purposes, the approximate solubility of Compound I dihydrochloride Form 1 was estimated in water, using the same procedure, in solubility screening Experiment 25.

[2] = Thermodynamic solubility study (HPLC of mother liquors); format: physicochemical; details: thermodynamic from solid
Protocol: To obtain accurate solubility and residual solid form data for amorphous Compound I dihydrochloride, thermodynamic solubility studies were carried out on amorphous input material in selected solvent systems at 50° C. and 5° C. (Table 6).

Work on `CC[C@H]1CN2CCc3cc(OC)c(OC)cc3[C@@H]2C[C@@H]1C[C@H]1NCCc2cc(OC)c(OC)cc21` [Amorphous Compound I dihydrochloride] yielded a solubility ([1]; aqueous with cosolvent or surfactant or cyclodextrin, acetone:water 50:50 v/v) of over 200 mg/mL, a solubility ([1]; aqueous with cosolvent or surfactant or cyclodextrin, ethanol:water 25:75 v/v) of over 200 mg/mL and a solubility ([1]; aqueous with cosolvent or surfactant or cyclodextrin, methanol:water 50:50 v/v) of over 200 mg/mL. It also gave a solubility ([1]; organic solvent or mixture, 1-propanol) of over 200 mg/mL, a solubility ([1]; organic solvent or mixture, 2-methyl THF) of under 10 mg/mL and a solubility ([1]; organic solvent or mixture, 2-propanol) of over 200 mg/mL. It also gave a solubility ([1]; organic solvent or mixture, 2-propanol:water 95:5 v/v) of over 200 mg/mL, a solubility ([1]; organic solvent or mixture, N-methyl-2-pyrrolidone) of over 200 mg/mL and a solubility ([1]; organic solvent or mixture, THF) of under 10 mg/mL. The solubility ([1]; organic solvent or mixture, acetone) was under 10 mg/mL, the solubility ([1]; organic solvent or mixture, anisole) was under 10 mg/mL and the solubility ([1]; organic solvent or mixture, dimethylformamide) was over 200 mg/mL. For the same compound, the solubility ([1]; organic solvent or mixture, dimethylsulfoxide) was over 200 mg/mL, the solubility ([1]; organic solvent or mixture, ethanol) was over 200 mg/mL and the solubility ([1]; organic solvent or mixture, ethanol:water 90:10 v/v) was over 200 mg/mL. The solubility ([1]; organic solvent or mixture, ethyl acetate) was under 10 mg/mL, the solubility ([1]; organic solvent or mixture, heptane) was under 10 mg/mL and the solubility ([1]; organic solvent or mixture, isopropyl acetate) was under 10 mg/mL. It also gave a solubility ([1]; organic solvent or mixture, methanol) of over 200 mg/mL, a solubility ([1]; organic solvent or mixture, methylethyl ketone) of under 10 mg/mL and a solubility ([1]; organic solvent or mixture, methylisobutyl ketone) of under 10 mg/mL. It also gave a solubility ([1]; organic solvent or mixture, tBME) of under 10 mg/mL, a solubility ([1]; organic solvent or mixture, toluene) of under 10 mg/mL and a solubility ([1]; water) of over 200 mg/mL. For the same compound, the solubility thermodynamic at 23 h ([2]; organic solvent or mixture, 2-propanol:heptane 70:30 v/v, 5° C.) was under 10 mg/mL, the solubility thermodynamic at 23 h ([2]; organic solvent or mixture, 2-propanol:heptane 70:30 v/v, 50° C.) was about 20 mg/mL and the solubility thermodynamic at 23 h ([2]; organic solvent or mixture, 2-propanol:heptane 90:10 v/v, 5° C.) was 10 to 40 mg/mL. For the same compound, the solubility thermodynamic at 23 h ([2]; organic solvent or mixture, 2-propanol:heptane 90:10 v/v, 50° C.) was 40 to 115 mg/mL, the solubility thermodynamic at 23 h ([2]; organic solvent or mixture, 2-propanol:water 95:5 v/v, 5° C.) was 10 to 40 mg/mL and the solubility thermodynamic at 23 h ([2]; organic solvent or mixture, 2-propanol:water 95:5 v/v, 50° C.) was 40 to 115 mg/mL. The solubility thermodynamic at 23 h ([2]; organic solvent or mixture, 2-propanol:water 99:1 v/v, 5° C.) was 10 to 40 mg/mL, the solubility thermodynamic at 23 h ([2]; organic solvent or mixture, 2-propanol:water 99:1 v/v, 50° C.) was 40 to 115 mg/mL and the solubility thermodynamic at 23 h ([2]; organic solvent or mixture, 2-propanol, 5° C.) was 10 to 40 mg/mL. It also gave a solubility thermodynamic at 23 h ([2]; organic solvent or mixture, 2-propanol, 50° C., experiment remained unsaturated) of over 215 mg/mL, a solubility thermodynamic at 23 h ([2]; organic solvent or mixture, acetone:water 60:40 v/v, 5° C., experiment remained unsaturated) of over 125 mg/mL and a solubility thermodynamic at 23 h ([2]; organic solvent or mixture, acetone:water 60:40 v/v, 50° C., experiment remained unsaturated) of over 215 mg/mL. For the same compound, the solubility thermodynamic at 23 h ([2]; organic solvent or mixture, acetone:water 70:30 v/v, 5° C., experiment remained unsaturated) was over 125 mg/mL, the solubility thermodynamic at 23 h ([2]; organic solvent or mixture, acetone:water 70:30 v/v, 50° C., experiment remained unsaturated) was over 215 mg/mL and the solubility thermodynamic at 23 h ([2]; organic solvent or mixture, acetone:water 90:10 v/v, 5° C.) was 10 to 40 mg/mL. The solubility thermodynamic at 23 h ([2]; organic solvent or mixture, acetone:water 90:10 v/v, 50° C.) was 40 to 115 mg/mL, the solubility thermodynamic at 23 h ([2]; organic solvent or mixture, ethanol:heptane 60:40 v/v, 5° C.) was under 10 mg/mL and the solubility thermodynamic at 23 h ([2]; organic solvent or mixture, ethanol:heptane 60:40 v/v, 50° C.) was 40 to 115 mg/mL. It also gave a solubility thermodynamic at 23 h ([2]; organic solvent or mixture, ethanol:heptane 80:20 v/v, 5° C.) of 10 to 40 mg/mL, a solubility thermodynamic at 23 h ([2]; organic solvent or mixture, ethanol:heptane 80:20 v/v, 50° C., experiment remained unsaturated) of over 215 mg/mL and a solubility thermodynamic at 23 h ([2]; organic solvent or mixture, ethanol, 5° C.) of 10 to 40 mg/mL. For the same compound, the solubility thermodynamic at 23 h ([2]; organic solvent or mixture, ethanol, 50° C., experiment remained unsaturated) was over 215 mg/mL, the solubility thermodynamic at 23 h ([2]; water, 5° C.) was 65 mg/mL and the solubility thermodynamic at 23 h ([2]; water, 50° C., experiment remained unsaturated) was over 215 mg/mL.

Source: patent US12528805B2, “Solid forms of emetine” (Acer Therapeutics, Inc., priority 2020, dated 2026)
